US20120225947A1, “RETINAL NEUROPROTECTION BY ION CHANNEL BLOCKERS REGULATED BY THE SUR SUBUNIT” (ASSISTANCE PUBLIQUE - HOPITAUX DE PARIS, priority 2009, published 2012)
Like-named read-outs stand apart in the source and are kept apart here.

Experiments:
[1] = system: retinal cells; test: NMDA-induced retinal degeneration in the rat, different routes of administration of glibenclamide (Example 2), TUNEL apoptotic cell count; format: in vivo; conditions: for apoptotic cell count in retinas exposed to NMDA-induced degeneration: 18 hours, vs NMDA+DMSO, FIG. 6; for NMDA-induced retinal cell degeneration (apoptotic cells per field): intravitreal NMDA the same day
Text: (§1) To induce retinal neurodegeneration, the inventors injected N-methyl-D-aspartate (NMDA) into the vitreous body of rats, a recognized model of retinal excitotoxicity in which NMDA, a synthetic glutamate analog, promotes cell death (Crisanti et al., 2006). Present in excess amounts, NMDA hyperactivates neuronal excitatory receptors (NMDA receptors) which become permeable to calcium. Injection of NMDA results in an increase in intracellular calcium levels. Intracellular calcium activates enzymes (phospholipase C, endonucleases, proteases) which degrade cell structures and lead to apoptosis.
Eight-week-old male Wistar rats weighing 320-350 g were used. Rats were maintained in standard animal housing with a 12 hr day/12 hr night cycle at a temperature of 21° C.+1° C. and 55±5% humidity.
Retinal sections were permeabilized by incubation in 0.3% Triton ×100 for 20 minutes at room temperature and then incubated for 1 hour at 37° C. with 50 μL of TUNEL reaction mixture per slide (mixture obtained with 40 μL TUNEL enzyme and 360 μL TUNEL label, solution containing FITC-conjugated nucleotides).
The amount of cell death by apoptosis and the type of cells concerned were evaluated by the number and intraretinal location of TUNEL-positive nuclei. For each eye, four complete retinal sections taken from the same eye sectors were used for apoptotic cell counts. The total number of apoptotic cells per retina was calculated with reference to the number of fields counted (therefore to retinal length which varies from one area of the retina to another). The mean of these field counts was calculated for an entire retinal section (composed of 7 to 14 fields) and these means, calculated for the different treatment groups, were compared by a nonparametric Mann-Whitney test with significance at p<0.05.
Eight groups of 2 rats were used. Both eyes of each animal received identical treatment. Three routes of administration of glibenclamide were tested: intravitreal route (1 ng or 0.01 ng injected in each eye), oral route (10 mg/kg body weight) and subconjunctival route (1 ng glibenclamide injected in each eye).
The glibenclamide stock solution for the intravitreal and subconjunctival injections was obtained by diluting 4.5 mg glibenclamide in 300 μL of pure DMSO. This solution was then frozen. The glibenclamide solutions at different concentrations used for the intravitreal and subconjunctival injections were obtained by dilution in BSS® buffer (Alcon) immediately before use.
The glibenclamide solutions for oral administration (10 mg/kg) were obtained by dissolving 8 mg glibenclamide in […] DMSO and 1030 μL of water to give a 6 mg/ml glibenclamide solution, which was administered through a syringe.
Group 1: (n=2, 4 eyes), intravitreal injection of 6 μL of solution containing 45 nM NMDA and 1 ng glibenclamide.
Group 2: (n=2, 4 eyes), intravitreal injection of 6 μL of solution containing 45 nM NMDA and 0.01 ng glibenclamide.
Group 4: (n=2, 4 eyes), oral administration of glibenclamide 10 mg/kg body weight and simultaneous intravitreal injection of 6 μL of 45 nM NMDA. A 7% glucose solution was made available ad libitum to avoid possible hypoglycemia.
Group 6: (n=2, 4 eyes), subconjunctival injection of 50 μL of solution containing 1 ng glibenclamide and simultaneous intravitreal injection of 6 μL of 45 nM NMDA.
18 hours after NMDA and glibenclamide administration, rats were euthanized and the eyes were immediately dissected, fixed in 4% paraformaldehyde and 10% sucrose for 4 hours, then immersed overnight at 4° C. in 15% sucrose in phosphate buffer.
Eyes were then embedded in OCT and cryostat-sectioned (10 μm thick). Sections were labeled by the TUNEL method to detect apoptotic cell death.

[2] = system: retinal cells; format: in vivo; conditions: vs BSS, P<0.0001, FIG. 10
Text: as §1
Eight-week-old male Wistar rats weighing 320-350 g were used. Rats were maintained in standard animal housing with a 12 hr day/12 hr night cycle at a temperature of 21° C.+1° C. and 55±5% humidity. […]
The amount of cell death by apoptosis and the type of cells concerned were evaluated by the number and intraretinal location of TUNEL-positive nuclei. […] The total number of apoptotic cells per retina was calculated with reference to the number of fields counted (therefore to retinal length which varies from one area of the retina to another). The mean of these field counts was calculated for an entire retinal section (composed of 7 to 14 fields) and these means, calculated for the different treatment groups, were compared by a nonparametric Mann-Whitney test with significance at p<0.05. […]

## COc1ccc(Cl)cc1C(=O)NCCc1ccc(S(=O)(=O)NC(=O)NC2CCCCC2)cc1 [glibenclamide]
[1]; intravitreal 0.01 ng co-injected with 45 nM NMDA
  apoptotic cell count in retinas exposed to NMDA-induced degeneration: significant decrease
[1]; intravitreal 0.01 ng co-injected with NMDA, FIG. 7C
  organization of the retinal cell layers (DAPI labeling): perfectly conserved
[1]; intravitreal 1 ng co-injected with 45 nM NMDA
  apoptotic cell count in retinas exposed to NMDA-induced degeneration: significant decrease
[1]; intravitreal 1 ng co-injected with NMDA, FIG. 7B
  organization of the retinal cell layers (DAPI labeling): perfectly conserved
[1]; oral 10 mg/kg, vs DMSO per os, P=0.012, FIG. 8
  NMDA-induced retinal cell degeneration (apoptotic cells per field): significantly reduced
[1]; subconjunctival 1 ng, vs DMSO SCJ, P=0.0002, FIG. 9
  NMDA-induced retinal cell degeneration (apoptotic cells per field): significantly reduced
[2]; intravitreal 100 ng in BSS 5 days before intravitreal NMDA
  protection of retinal cells from NMDA-induced degeneration (apoptotic cells per field): significantly protected
[2]; intravitreal 100 μg in BSS 5 days before intravitreal NMDA
  protection of retinal cells from NMDA-induced degeneration (apoptotic cells per field): significantly protected
